According to US20240206469A1, “PHOSPHORUS USE EFFICIENCY ENHANCERS AS PLANT GROWTH PROMOTORS” (EUROCHEM ANTWERPEN, priority 2021, published 2024):

Columns and labels:
Maize DKC2931 = test: Long-term maize pot experiment, DKC2931 (PHENOVISION); format: in vivo, maize cultivar DKC 2931
Method: (§1) Regular Arabidopsis, soybean and maize pot experiments used an unfertilized potting soil, which was supplemented at the start of the experiment with 50 ml H2O containing 0.25 g/l NH4NO3 and 0.44 g/l (high phosphate) or no (maize and soybean) or 0.11 g/l KH2PO (Arabidopsis) for low phosphate conditions. For the sand-based maize pot experiment, sand was supplemented with 50 ml H2O containing 0.25 g/l NH4NO3 and 0.38 g/l (high phosphate) or 0.02 g/l (low phosphate) KH2PO4. Potassium was balanced via addition of KCl. Compound concentration was 10 μM, calculated based on the total water content after watering, and was added at the start of the experiment (Arabidopsis) or once a week (maize). Indexed chlorophyll contents were received via a SPAD 502 Plus Chlorophyll Meter. All parameters in the sand experiment, except the rate of leaf 4 (measured the first 4 days after emergence), were measured 19 days after sowing. Measurements in the pot experiments with potting soil were done after 4 weeks of growth, except for leaf 5, which was measured at 26 days. One long-term maize pot experiment was conducted with the DKC 2931 (2.5 months) and B104 (3 months) cultivars on the PHENOVISION phenotyping platform as described in Frontiers in Plant Science 2021, 12: 640914, except that an unfertilized potting soil was used and that plants were fertilized with a low-phosphate Hoagland solution. The 2.5× overconcentrated low-phosphate Hoagland solution contained 0.034 g/l KH2PO and 200 mL of this solution was applied twice a week. 1.4 mL of a 10 mM compound solution was added each two weeks to each pot, corresponding to 9.6 mg/g nutrients. 13 plants per condition were used. During the experiment, pictures were taken twice a week for each plants from 6 different angles and the top. Pictures were used to extract the plant height and to extract the projected plant area from each side and calculate an estimated plant volume over time.

Maize B104 = test: Long-term maize pot experiment, B104 (PHENOVISION); format: in vivo, maize cultivar B104
Method: as §1

Maize = Maize growth experiment in pots with mixture of unfertilized potting soil and sand (leaf 5); format: in vivo; conditions: maize, pots with unfertilized potting soil and sand, after 29 days; control 38.1
Method: For a subset of compounds, we performed a more extensive analysis on their root hair inducing effect in a dose-response experiment (Table 3). This confirms that the more simple structures 8.14 and 8.14.6 still retain the activity of compound 8. […] To validate this, we performed a maize growth experiment using compound 8 and the, based on the increase of total root hair length, stronger variant 8.14.6. The experiment was conducted in pots with a mixture of unfertilized potting soil and sand, and leaf 5 was measured after 29 days (Table 4).

Q: Which Plant height (Maize DKC2931; DKC2931, day 15, control 288) does the source give for `CC1CN(CC(=O)c2c(N)n(C)c(=O)n(C)c2=O)c2ccccc2O1` (stereo not shown) [Compound 8, 6-amino-1,3-dimethyl-5-[2-(2-methyl-2,3-dihydro-1,4-benzoxazin-4-yl)acetyl]pyrimidine-2,4-dione] here?
A: 297 mm

Q: And the Estimated volume (Maize DKC2931; DKC2931, day 15, control 361)?
A: 393 cm^3

Q: What about the Plant height (Maize DKC2931; DKC2931, day 19, control 352) of the same compound?
A: 368 mm

Q: What about the Estimated volume (Maize DKC2931; DKC2931, day 19, control 576) of the same compound?
A: 763 cm^3

Q: What about the Plant height (Maize DKC2931; DKC2931, day 22, control 335) of the same compound?
A: 372 mm

Q: What about the Estimated volume (Maize DKC2931; DKC2931, day 22, control 843) of the same compound?
A: 1104 cm^3

Q: And the Plant height (Maize DKC2931; DKC2931, day 26, control 378)?
A: 452 mm

Q: And the Estimated volume (Maize DKC2931; DKC2931, day 26, control 1145)?
A: 1646 cm^3

Q: And the Plant height (Maize DKC2931; DKC2931, day 27, control 352)?
A: 460 mm

Q: And the Estimated volume (Maize DKC2931; DKC2931, day 27, control 1086)?
A: 1826 cm^3

Q: And the Plant height (Maize DKC2931; DKC2931, day 29, control 399)?
A: 471 mm

Q: And the Estimated volume (Maize DKC2931; DKC2931, day 29, control 1581)?
A: 2187 cm^3

Q: And the Plant height (Maize DKC2931; DKC2931, day 33, control 424)?
A: 553 mm

Q: What about the Estimated volume (Maize DKC2931; DKC2931, day 33, control 2272) of the same compound?
A: 3213 cm^3

Q: What about the Plant height (Maize DKC2931; DKC2931, day 36, control 531) of the same compound?
A: 634 mm

Q: What about the Estimated volume (Maize DKC2931; DKC2931, day 36, control 2854) of the same compound?
A: 3881 cm^3

Q: And the Plant height (Maize DKC2931; DKC2931, day 40, control 578)?
A: 694 mm

Q: What about the Estimated volume (Maize DKC2931; DKC2931, day 40, control 3872) of the same compound?
A: 5092 cm^3

Q: And the Plant height (Maize DKC2931; DKC2931, day 43, control 655)?
A: 756 mm

Q: And the Estimated volume (Maize DKC2931; DKC2931, day 43, control 4240)?
A: 5538 cm^3

Q: What about the Plant height (Maize DKC2931; DKC2931, day 47, control 732) of the same compound?
A: 799 mm

Q: And the Estimated volume (Maize DKC2931; DKC2931, day 47, control 4988)?
A: 6770 cm^3

Q: What about the Plant height (Maize DKC2931; DKC2931, day 50, control 777) of the same compound?
A: 844 mm

Q: And the Estimated volume (Maize DKC2931; DKC2931, day 50, control 5718)?
A: 7419 cm^3

Q: What about the Plant height (Maize DKC2931; DKC2931, day 54, control 562) of the same compound?
A: 652 mm

Q: And the Estimated volume (Maize DKC2931; DKC2931, day 54, control 6325)?
A: 8086 cm^3

Q: And the Plant height (Maize DKC2931; DKC2931, day 57, control 678)?
A: 894 mm

Q: And the Estimated volume (Maize DKC2931; DKC2931, day 57, control 6295)?
A: 7681 cm^3

Q: What about the Plant height (Maize DKC2931; DKC2931, day 61, control 893) of the same compound?
A: 1021 mm

Q: And the Estimated volume (Maize DKC2931; DKC2931, day 61, control 6047)?
A: 7458 cm^3

Q: And the Plant height (Maize DKC2931; DKC2931, day 63, control 811)?
A: 880 mm

Q: And the Estimated volume (Maize DKC2931; DKC2931, day 63, control 5546)?
A: 6642 cm^3

Q: And the Plant height (Maize DKC2931; DKC2931, day 68, control 849)?
A: 895 mm

Q: And the Estimated volume (Maize DKC2931; DKC2931, day 68, control 4292)?
A: 4967 cm^3

Q: And the Plant height (Maize DKC2931; DKC2931, day 71, control 856)?
A: 916 mm

Q: What about the Estimated volume (Maize DKC2931; DKC2931, day 71, control 4022) of the same compound?
A: 4807 cm^3

Q: What about the Plant height (Maize DKC2931; DKC2931, day 75, control 798) of the same compound?
A: 903 mm

Q: And the Estimated volume (Maize DKC2931; DKC2931, day 75, control 3778)?
A: 4587 cm^3

Q: What about the “Average number of ears” value (Maize DKC2931; Maize pot long term DKC2931, 2.5 months, low phosphate, control 1) of the same compound?
A: 1

Q: And the Shoot weight (Maize DKC2931; Maize pot long term DKC2931, low phosphate, control 27)?
A: 33 g

Q: And the “Leaf 6” value (Maize DKC2931; Maize pot long term DKC2931, low phosphate, control 53)?
A: 58 cm

Q: And the Plant height (Maize B104; B104, day 15, control 230)?
A: 220 mm

Q: And the Estimated volume (Maize B104; B104, day 15, control 311)?
A: 292 cm^3

Q: And the Plant height (Maize B104; B104, day 19, control 246)?
A: 239 mm

Q: And the Estimated volume (Maize B104; B104, day 19, control 465)?
A: 441 cm^3

Q: What about the Plant height (Maize B104; B104, day 22, control 291) of the same compound?
A: 288 mm

Q: What about the Estimated volume (Maize B104; B104, day 22, control 548) of the same compound?
A: 565 cm^3

Q: What about the Plant height (Maize B104; B104, day 26, control 351) of the same compound?
A: 368 mm

Q: What about the Estimated volume (Maize B104; B104, day 26, control 623) of the same compound?
A: 689 cm^3

Q: And the Plant height (Maize B104; B104, day 27, control 416)?
A: 364 mm

Q: What about the Estimated volume (Maize B104; B104, day 27, control 637) of the same compound?
A: 552 cm^3

Q: What about the Plant height (Maize B104; B104, day 29, control 412) of the same compound?
A: 411 mm

Q: And the Estimated volume (Maize B104; B104, day 29, control 788)?
A: 877 cm^3

Q: What about the Plant height (Maize B104; B104, day 33, control 424) of the same compound?
A: 428 mm

Q: And the Estimated volume (Maize B104; B104, day 33, control 1146)?
A: 1368 cm^3

Q: And the Plant height (Maize B104; B104, day 36, control 472)?
A: 485 mm

Q: What about the Estimated volume (Maize B104; B104, day 36, control 1405) of the same compound?
A: 1735 cm^3

Q: What about the Plant height (Maize B104; B104, day 40, control 507) of the same compound?
A: 547 mm

Q: And the Estimated volume (Maize B104; B104, day 40, control 1673)?
A: 2117 cm^3

Q: What about the Plant height (Maize B104; B104, day 43, control 551) of the same compound?
A: 587 mm

Q: And the Estimated volume (Maize B104; B104, day 43, control 1795)?
A: 2363 cm^3

Q: And the Plant height (Maize B104; B104, day 47, control 609)?
A: 657 mm

Q: What about the Estimated volume (Maize B104; B104, day 47, control 2268) of the same compound?
A: 2844 cm^3

Q: What about the Plant height (Maize B104; B104, day 50, control 633) of the same compound?
A: 692 mm

Q: What about the Estimated volume (Maize B104; B104, day 50, control 2874) of the same compound?
A: 3518 cm^3

Q: What about the Plant height (Maize B104; B104, day 54, control 544) of the same compound?
A: 564 mm

Q: And the Estimated volume (Maize B104; B104, day 54, control 3143)?
A: 3857 cm^3

Q: And the Plant height (Maize B104; B104, day 57, control 572)?
A: 569 mm

Q: And the Estimated volume (Maize B104; B104, day 57, control 3365)?
A: 4216 cm^3

Q: What about the Plant height (Maize B104; B104, day 61, control 572) of the same compound?
A: 609 mm

Q: What about the Estimated volume (Maize B104; B104, day 61, control 3936) of the same compound?
A: 5052 cm^3

Q: And the Plant height (Maize B104; B104, day 63, control 514)?
A: 529 mm

Q: What about the Estimated volume (Maize B104; B104, day 63, control 3808) of the same compound?
A: 4933 cm^3

Q: What about the Plant height (Maize B104; B104, day 68, control 566) of the same compound?
A: 593 mm

Q: What about the Estimated volume (Maize B104; B104, day 68, control 4585) of the same compound?
A: 5837 cm^3

Q: And the Plant height (Maize B104; B104, day 71, control 611)?
A: 629 mm

Q: What about the Estimated volume (Maize B104; B104, day 71, control 4957) of the same compound?
A: 5962 cm^3

Q: What about the Plant height (Maize B104; B104, day 75, control 569) of the same compound?
A: 627 mm

Q: What about the Estimated volume (Maize B104; B104, day 75, control 5016) of the same compound?
A: 6099 cm^3

Q: What about the Plant height (Maize B104; B104, day 78, control 590) of the same compound?
A: 662 mm

Q: What about the Estimated volume (Maize B104; B104, day 78, control 5551) of the same compound?
A: 6540 cm^3

Q: And the Plant height (Maize B104; B104, day 82, control 626)?
A: 685 mm

Q: And the Estimated volume (Maize B104; B104, day 82, control 5788)?
A: 6751 cm^3

Q: What about the Plant height (Maize B104; B104, day 85, control 677) of the same compound?
A: 707 mm

Q: And the Estimated volume (Maize B104; B104, day 85, control 5957)?
A: 6623 cm^3

Q: What about the Plant height (Maize B104; B104, day 89, control 697) of the same compound?
A: 733 mm

Q: And the Estimated volume (Maize B104; B104, day 89, control 5717)?
A: 6434 cm^3

Q: And the “Average number of ears” value (Maize B104; Maize pot long term B104, 3 months, low phosphate, control 0.3)?
A: 0.7

Q: And the Shoot weight (Maize B104; Maize pot long term B104, low phosphate, control 28)?
A: 32 g

Q: What about the “Leaf 6” value (Maize B104; Maize pot long term B104, low phosphate, control 48) of the same compound?
A: 50 cm

Q: What about the “Leaf 5” value (Maize) of the same compound?
A: 39.4 cm
